# Earlier results in patent US20230149383A1, “QUINOLINE COMPOUNDS FOR TREATING LUNG, LIVER, AND KIDNEY DISEASES, DISORDERS, OR CONDITIONS” (Aldeyra Therapeutics, Inc., priority 2020, published 2023).
# Assays:
# [1] = test system: precision-cut liver slices (PCLS); settings: addition of 4-methylpyrazole; cited from earlier work
# [2] = test system: minimal change disease; settings: Hogan et al. 2013; cited from earlier work
# [3] = test system: ocular inflammation; settings: Phase 2 and Phase 3 clinical trials; cited from earlier work
smiles,measurement,setting,value
Cc1cn[nH]c1 [4-methylpyrazole],"ethanol-induced impairments (fatty liver, redox state, albumin secretion)",[1],reversed
C[C@]12C=CC(=O)C=C1CC[C@@H]1[C@@H]2[C@@H](O)C[C@@]2(C)[C@H]1CC[C@]2(O)C(=O)CO [prednisolone],"complete remission, share of adults with minimal change disease",[2],over 80%
CC(C)(O)c1nc2ccc(Cl)cc2cc1N [reproxalap],"benefit in ocular inflammation, including dry eye disease and allergic conjunctivitis",[3],beneficial
